Test results taken from the supplement of paper PMC10307832.

Tests used:
Assay in all cases: relative viability (nuclei count vs DMSO), 5 days (fraction); higher = more cells survive
NCI-H1793 = system: NCI-H1793
Outline: (§1)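 A single step with final 0.05% Triton X-100, 1% formaldehyde and 1 ug/ml Hoechst fixed the cells and stained nuclei 5 days after treatment. Lung cancer cell lines in 1536-well plates had been treated by pin tool the day after seeding with one drug alone or a fixed anchor-drug dose plus five library-drug doses (not always all listed) in √10 steps, and nuclei were counted on 4× images. Relative viability is the ratio of nuclei in treated wells to nuclei in vehicle wells, taken as the median of duplicate plates.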

SW 1573 = system: SW 1573
Outline: as §1

NCI-H441 = system: NCI-H441
Outline: as §1

NCI-H2347 = system: NCI-H2347
Outline: as §1

NCI-H2342 = system: NCI-H2342
Outline: as §1

NCI-H2009 = system: NCI-H2009
Outline: as §1

HCC-15 = system: HCC-15
Outline: as §1

EPLC-272H = system: EPLC-272H
Outline: as §1

NCI-H358 = system: NCI-H358
Outline: as §1

UMC-11 = system: UMC-11
Outline: as §1

NCI-H322M = system: NCI-H322M
Outline: as §1

NCI-H647 = system: NCI-H647
Outline: as §1

A-427 = system: A-427
Outline: as §1

NCI-H1915 = system: NCI-H1915
Outline: as §1

LK-2 = system: LK-2
Outline: as §1

NCI-H1944 = system: NCI-H1944
Outline: as §1

ABC-1 = system: ABC-1
Outline: as §1

NCI-H838 = system: NCI-H838
Outline: as §1

NCI-H2023 = system: NCI-H2023
Outline: as §1

RERF-LC-KJ = system: RERF-LC-KJ
Outline: as §1

NCI-H1734 = system: NCI-H1734
Outline: as §1

LC-2-ad = system: LC-2-ad
Outline: as §1

Cc1cn(-c2cc(NC(=O)c3ccc(C)c(Nc4nccc(-c5cccnc5)n4)c3)cc(C(F)(F)F)c2)cn1 [Nilotinib] + COc1cc2c(Oc3ccc(NC(=O)C4(C(=O)Nc5ccc(F)cc5)CC4)cc3F)ccnc2cc1OCCCN1CCOCC1 [Foretinib] (partner 0.25 µM)
relative viability (NCI-H1793; first compound 0.001 µM): 0.768
relative viability (NCI-H1793; first compound 0.003162 µM): 1.02
relative viability (NCI-H1793; first compound 0.01 µM): 0.79
relative viability (NCI-H1793; first compound 0.03162 µM): 0.542
relative viability (NCI-H1793; first compound 0.1 µM): 0.582
relative viability (SW 1573; first compound 0.001 µM): 0.949
relative viability (SW 1573; first compound 0.003162 µM): 1.14
relative viability (SW 1573; first compound 0.01 µM): 1.14
relative viability (SW 1573; first compound 0.03162 µM): 0.753
relative viability (SW 1573; first compound 0.1 µM): 0.808
relative viability (NCI-H441; first compound 0.001 µM): 0.878
relative viability (NCI-H441; first compound 0.003162 µM): 1.26
relative viability (NCI-H441; first compound 0.01 µM): 1.32
relative viability (NCI-H441; first compound 0.03162 µM): 0.932
relative viability (NCI-H441; first compound 0.1 µM): 0.805
relative viability (NCI-H2347; first compound 0.001 µM): 1.14
relative viability (NCI-H2347; first compound 0.003162 µM): 0.65
relative viability (NCI-H2347; first compound 0.01 µM): 0.6
relative viability (NCI-H2347; first compound 0.03162 µM): 0.77
relative viability (NCI-H2347; first compound 0.1 µM): 0.501
relative viability (NCI-H2342; first compound 0.001 µM): 0.968
relative viability (NCI-H2342; first compound 0.003162 µM): 1.1
relative viability (NCI-H2342; first compound 0.03162 µM): 0.979
relative viability (NCI-H2342; first compound 0.1 µM): 1
relative viability (NCI-H2009; first compound 0.001 µM): 1.12
relative viability (NCI-H2009; first compound 0.003162 µM): 1.41
relative viability (NCI-H2009; first compound 0.01 µM): 1.32
relative viability (NCI-H2009; first compound 0.03162 µM): 1.16
relative viability (NCI-H2009; first compound 0.1 µM): 1.1
relative viability (HCC-15; first compound 0.001 µM): 0.975
relative viability (HCC-15; first compound 0.003162 µM): 1.25
relative viability (HCC-15; first compound 0.01 µM): 1.09
relative viability (HCC-15; first compound 0.03162 µM): 0.858
relative viability (HCC-15; first compound 0.1 µM): 0.754
relative viability (EPLC-272H; first compound 0.001 µM): 0.48
relative viability (EPLC-272H; first compound 0.003162 µM): 0.658
relative viability (EPLC-272H; first compound 0.01 µM): 0.688
relative viability (EPLC-272H; first compound 0.03162 µM): 0.435
relative viability (EPLC-272H; first compound 0.1 µM): 0.195
relative viability (NCI-H358; first compound 0.001 µM): 0.655
relative viability (NCI-H358; first compound 0.003162 µM): 0.8
relative viability (NCI-H358; first compound 0.01 µM): 0.818
relative viability (NCI-H358; first compound 0.03162 µM): 0.446
relative viability (NCI-H358; first compound 0.1 µM): 0.346
relative viability (UMC-11; first compound 0.001 µM): 0.896
relative viability (UMC-11; first compound 0.003162 µM): 1.18
relative viability (UMC-11; first compound 0.01 µM): 1.23
relative viability (UMC-11; first compound 0.1 µM): 1.17
relative viability (NCI-H322M; first compound 0.001 µM): 1.01
relative viability (NCI-H322M; first compound 0.003162 µM): 0.987
relative viability (NCI-H322M; first compound 0.01 µM): 1.05
relative viability (NCI-H322M; first compound 0.03162 µM): 0.956
relative viability (NCI-H322M; first compound 0.1 µM): 1.07
relative viability (NCI-H647; first compound 0.001 µM): 1.09
relative viability (NCI-H647; first compound 0.003162 µM): 1.16
relative viability (NCI-H647; first compound 0.01 µM): 1.34
relative viability (NCI-H647; first compound 0.03162 µM): 0.879
relative viability (NCI-H647; first compound 0.1 µM): 0.86
relative viability (A-427; first compound 0.001 µM): 0.945
relative viability (A-427; first compound 0.003162 µM): 1.09
relative viability (A-427; first compound 0.01 µM): 1.03
relative viability (A-427; first compound 0.03162 µM): 0.792
relative viability (A-427; first compound 0.1 µM): 0.476
relative viability (NCI-H1915; first compound 0.001 µM): 0.966
relative viability (NCI-H1915; first compound 0.003162 µM): 1.21
relative viability (NCI-H1915; first compound 0.01 µM): 1.2
relative viability (NCI-H1915; first compound 0.03162 µM): 0.983
relative viability (NCI-H1915; first compound 0.1 µM): 0.952
relative viability (LK-2; first compound 0.001 µM): 1.02
relative viability (LK-2; first compound 0.003162 µM): 1.53
relative viability (LK-2; first compound 0.01 µM): 1.1
relative viability (LK-2; first compound 0.03162 µM): 0.905
relative viability (LK-2; first compound 0.1 µM): 0.711
relative viability (NCI-H1944; first compound 0.001 µM): 0.907
relative viability (NCI-H1944; first compound 0.003162 µM): 1.05
relative viability (NCI-H1944; first compound 0.01 µM): 1.06
relative viability (NCI-H1944; first compound 0.03162 µM): 0.739
relative viability (ABC-1; first compound 0.001 µM): 0.963
relative viability (ABC-1; first compound 0.003162 µM): 1.32
relative viability (ABC-1; first compound 0.01 µM): 1.17
relative viability (ABC-1; first compound 0.03162 µM): 0.918
relative viability (ABC-1; first compound 0.1 µM): 1.32
relative viability (NCI-H838; first compound 0.001 µM): 1.03
relative viability (NCI-H838; first compound 0.003162 µM): 1.16
relative viability (NCI-H838; first compound 0.01 µM): 1.27
relative viability (NCI-H838; first compound 0.03162 µM): 0.91
relative viability (NCI-H838; first compound 0.1 µM): 0.949
relative viability (NCI-H2023; first compound 0.001 µM): 0.839
relative viability (NCI-H2023; first compound 0.01 µM): 1.01
relative viability (NCI-H2023; first compound 0.03162 µM): 0.88
relative viability (NCI-H2023; first compound 0.1 µM): 0.875
relative viability (RERF-LC-KJ; first compound 0.001 µM): 0.967
relative viability (RERF-LC-KJ; first compound 0.003162 µM): 1.08
relative viability (RERF-LC-KJ; first compound 0.01 µM): 0.924
relative viability (RERF-LC-KJ; first compound 0.03162 µM): 0.81
relative viability (RERF-LC-KJ; first compound 0.1 µM): 0.912
relative viability (NCI-H1734; first compound 0.001 µM): 0.771
relative viability (NCI-H1734; first compound 0.01 µM): 0.895
relative viability (NCI-H1734; first compound 0.03162 µM): 0.646
relative viability (NCI-H1734; first compound 0.1 µM): 0.628
relative viability (LC-2-ad; first compound 0.001 µM): 0.912
relative viability (LC-2-ad; first compound 0.003162 µM): 1.08
relative viability (LC-2-ad; first compound 0.01 µM): 0.963
relative viability (LC-2-ad; first compound 0.03162 µM): 0.827
relative viability (LC-2-ad; first compound 0.1 µM): 0.804
